Our source for the EC50 values is US12643912B2, “Macrocyclic compounds, a process for their preparation and pharmaceutical compositions containing them” (LES LABORATOIRES SERVIER, priority 2020, dated 2026).

The subject of the first assay is Nrf2 (Keap1-NRF2 nuclear translocation). The experiment in a line: U2OS translocation assay (PathHunter U2OS Keap1-NRF2 Nuclear Translocation Cell Line). It is filed as cell-based. Conditions: Homo sapiens, U2OS, 3 h, read-out: CELLULAR U2OS EC50 (nM), U2OS Keap1-NRF2 nuclear translocation cells, 3 h incubation, luminescence, normalized between 1% DMSO and 10 μM andrographolide. As for the experimental part:
EXAMPLE 84: U2OS—TRANSLOCATION ASSAY
U2OS cell have been stably transduced using MMLV-derived retroviral vector, to overexpress Nrf2-Enzyme Donor fusion protein, and Acceptor Enzyme in the nucleus (PathHunter® U2OS Keap1-NRF2 Nuclear Translocation Cell Line, Ref.93-0821C3, DiscoverX).
PathHunter U2OS cells were grown in Minimum Essential Medium (MEM) (Ref.30-2003, ATCC), 10% FBS (Ref.P30-193306, PanBiotech), 500 μg/ml Geneticine, 250 μg/ml hygromycine, 0.25 μg/ml puromycine (10131-027, 10687-010 and Ref.A1113802 respectively, Life Technologies).
The night before experiment, cells were harvested using Tryple Xpress (Ref.126905, Bibco) for 5 min at 37° C., resuspended in Opti-MEM™ (Ref.31985-047, Gibco), 1% FBS (Ref.P30-193306, PanBiotech) and then plated into 384 wells plates (Ref.6007680, Perkin Elmer) at the density of 7 500 cells/well in 20 μl. Cell are stored over night at 37° C., 5% CO2 until used. Compounds in 100% DMSO (0.315 μl/well) were resuspended in 20 μl MEM, 1% FBS, 3.4% DMSO. Compounds and andrographolide (10 μM final concentration; Ref.365645-500MG, Aldrich)) as positive control, were dispensed on cell, 5 μl /well, and then incubated for 3 h at 37° C. and 5% CO2. After incubation, Path hunter reagents were dispensed on cells (12 μl /well, Ref.93-0001, DiscoverX) and incubated for 60 min at room temperature in the dark.
Then, luminescence signal was measured using multimodal reader (Pherastar, BMG Labtech). Data were normalized between 1% DMSO (basal signal) and 10 μM andrographolide (positive signal) and analyzed using Activity Base software.
With `COc1ccc2cc1[C@H](C)N1Cc3cc(ccc3OS1(=O)=O)OCCCCn1nnc3c(C)c(ccc31)[C@@H]2CC(=O)O` [Example 28c, [(2S,8R)-4-Methoxy-2,31-dimethyl-27,27-dioxo-21,26-dioxa-27λ^6-thia-1,14,15,16-tetraazahexacyclo[20.5.3.1^3,70.1^9,130.0^12,160.0^25,29]dotriaconta-3(32),4,6,9(31),10,12,14,22,24,29-decaen-8-yl]acetic acid], the EC50 was greater than 3160 nM. Same read-out and setting: then `COc1ccc2cc1[C@H](C)N1Cc3cc(ccc3OS1(=O)=O)OCCCCn1nnc3c(C)c(ccc31)[C@H]2CC(=O)O` [Example 28d, [(2S,8S)-4-methoxy-2,31-dimethyl-27,27-dioxo-21,26-dioxa-27λ^6-thia-1,14,15,16-tetraazahexacyclo[20.5.3.1^3,70.1^9,130.0^12,160.0^25,29]dotriaconta-3(32),4,6,9(31),10,12,14,22,24,29-decaen-8-yl]acetic acid], with 879 nM; and `Cc1ccc2cc1[C@@H](C)N1Cc3cc(cc(C)c3OS1(=O)=O)OCCCCn1nnc3c(C)c(ccc31)[C@@H]2CC(=O)O` [Example 29a, [(2R,8R)-2,4,24,31-Tetramethyl-27,27-dioxo-21,26-dioxa-27λ^6-thia-1,14,15,16-tetraazahexacyclo[20.5.3.1^3,70.1^9,130.0^12,160.0^25,29]dotriaconta-3(32),4,6,9(31),10,12,14,22,24,29-decaen-8-yl]acetic acid], with 440 nM; and `Cc1ccc2cc1[C@@H](C)N1Cc3cc(cc(C)c3OS1(=O)=O)OCCCCn1nnc3c(C)c(ccc31)[C@H]2CC(=O)O` [Example 29b, [(2R,8S)-2,4,24,31-tetramethyl-27,27-dioxo-21,26-dioxa-27λ^6-thia-1,14,15,16-tetraazahexacyclo[20.5.3.1^3,70.1^9,130.0^12,160.0^25,29]dotriaconta-3(32),4,6,9(31),10,12,14,22,24,29-decaen-8-yl]acetic acid], with 68.4 nM. Same read-out and setting: in the case of `COc1ccc2cc1[C@H](C)N1Cc3cc(ccc3OS1(=O)=O)OCCCCCn1nnc3c(C)c(ccc31)[C@H]2CC(=O)O` [Example 31a, [(2S,8S)-4-methoxy-2,32-dimethyl-28,28-dioxo-22,27-dioxa-28λ^6-thia-1,14,15,16-tetraazahexacyclo[21.5.3.1^3,70.1^9,130.0^12,160.0^26,30]tritriaconta-3(33),4,6,9(32),10,12,14,23,25,30-decaen-8-yl]acetic acid] it was 1430 nM; in that of `COc1ccc2cc1[C@@H](C)N1Cc3cc(ccc3OS1(=O)=O)OCCCCCn1nnc3c(C)c(ccc31)[C@H]2CC(=O)O` [Example 31b, [(2R,8S)-4-methoxy-2,32-dimethyl-28,28-dioxo-22,27-dioxa-28λ^6-thia-1,14,15,16-tetraazahexacyclo[21.5.3.1^3,70.1^9,130.0^12,160.0^26,30]tritriaconta-3(33),4,6,9(32),10,12,14,23,25,30-decaen-8-yl]acetic acid], 27.4 nM; in that of `COc1ccc2cc1[C@H](C)N1Cc3cc(ccc3OS1(=O)=O)OCCCCCn1nnc3c(C)c(ccc31)[C@@H]2CC(=O)O` [Example 31c, [(2S,8R)-4-methoxy-2,32-dimethyl-28,28-dioxo-22,27-dioxa-28λ^6-thia-1,14,15,16-tetraazahexacyclo[21.5.3.1^3,70.1^9,130.0^12,160.0^26,30]tritriaconta-3(33),4,6,9(32),10,12,14,23,25,30-decaen-8-yl]acetic acid], greater than 3160 nM. On the same count and under the same terms, in the case of `COc1ccc2cc1[C@@H](C)N1Cc3cc(ccc3OS1(=O)=O)OCCCCCn1nnc3c(C)c(ccc31)[C@@H]2CC(=O)O` [Example 31d, [(2R,8R)-4-methoxy-2,32-dimethyl-28,28-dioxo-22,27-dioxa-28λ^6-thia-1,14,15,16-tetraazahexacyclo[21.5.3.1^3,70.1^9,130.0^12,160.0^26,30]tritriaconta-3(33),4,6,9(32),10,12,14,23,25,30-decaen-8-yl]acetic acid] it was 326 nM; in that of `COc1cc2cc(c1Cl)CN1Cc3cc(ccc3OS1(=O)=O)OCCCCn1nnc3c(C)c(ccc31)C2CC(=O)O` (centres unmarked) [Example 38a, [4-Chloro-5-methoxy-31-methyl-27,27-dioxo-21,26-dioxa-27λ^6-thia-1,14,15,16-tetraazahexacyclo[20.5.3.1^3,70.1^9,130.0^12,160.0^25,29]dotriaconta-3(32),4,6,9(31),10,12,14,22,24,29-decaen-8-yl]acetic acid], 2080 nM.

Staying with this assay, now noted: read-out: CELLULAR U2OS EC50; U2OS Keap1-NRF2 nuclear translocation cells, 3 h incubation, luminescence, normalized between 1% DMSO and 10 μM andrographolide.
For `Cc1ccc2cc1CN1Cc3c(ccc(c3Cl)OCCOCCn3nnc4c(C)c(ccc43)C2CC(=O)O)OS1(=O)=O` (single isomer, unassigned) [Example 76a, [31-Chloro-4,32-dimethyl-28,28-dioxo-19,22,27-trioxa-28λ^6-thia-1,14,15,16-tetraazahexacyclo[21.5.3.1^3,70.1^9,130.0^12,160.0^26,30]tritriaconta-3(33),4,6,9(32),10,12,14,23,25,30-decaen-8-yl]acetic acid], the EC50 turned out to be 7.5 nM. Still for that read-out and setting: in the case of `Cc1ccc2cc1CN1Cc3c(ccc(c3Cl)OCCOCCn3nnc4c(C)c(ccc43)C2CC(=O)O)OS1(=O)=O` (single isomer, unassigned) [Example 76b, [31-Chloro-4,32-dimethyl-28,28-dioxo-19,22,27-trioxa-28λ^6-thia-1,14,15,16-tetraazahexacyclo[21.5.3.1^3,70.1^9,130.0^12,160.0^26,30]tritriaconta-3(33),4,6,9(32),10,12,14,23,25,30-decaen-8-yl]acetic acid] it was 26.2 nM; in that of `Cc1ccc2cc1CN1Cc3cc(ccc3OS1(=O)=O)OCCOCCn1nnc3c(C)c(ccc31)C2CC(=O)O` (single isomer, unassigned) [Example 78a, [4,32-Dimethyl-28,28-dioxo-19,22,27-trioxa-28λ^6-thia-1,14,15,16-tetraazahexacyclo[21.5.3.1^3,70.1^9,130.0^12,160.0^26,30]tritriaconta-3(33),4,6,9(32),10,12,14,23,25,30-decaen-8-yl]acetic acid], 69 nM; in that of `Cc1ccc2cc1CN1Cc3cc(ccc3OS1(=O)=O)OCCOCCn1nnc3c(C)c(ccc31)C2CC(=O)O` (single isomer, unassigned) [Example 78b, [4,32-Dimethyl-28,28-dioxo-19,22,27-trioxa-28λ^6-thia-1,14,15,16-tetraazahexacyclo[21.5.3.1^3,70.1^9,130.0^12,160.0^26,30]tritriaconta-3(33),4,6,9(32),10,12,14,23,25,30-decaen-8-yl]acetic acid], 873 nM.

`Cc1ccc2cc1CN1Cc3cc(ccc3OS1(=O)=O)OCCCCn1nnc3c(C)c(ccc31)C2C(C)(C)C(=O)Nc1cncnc1` (single isomer, unassigned) [Example 81a, 2-[4,31-Dimethyl-27,27-dioxido-21,26-dioxa-27-thia-1,14,15,16-tetraazahexacyclo[20.5.3.1^3,70.1^9,130.0^12,160.0^25,29]dotriaconta-3(32),4,6,9(31),10,12,14,22,24,29-decaen-8-yl]-2-methyl-N-(pyrimidin-5-yl)propanamide]: the EC50 is 275 nM. Same read-out and setting: in the case of `Cc1ccc2cc1CN1Cc3cc(ccc3OS1(=O)=O)OCCCCn1nnc3c(C)c(ccc31)C2C(C)(C)C(=O)Nc1cncnc1` (single isomer, unassigned) [Example 81b, 2-[4,31-Dimethyl-27,27-dioxido-21,26-dioxa-27-thia-1,14,15,16-tetraazahexacyclo[20.5.3.1^3,70.1^9,130.0^12,160.0^25,29]dotriaconta-3(32),4,6,9(31),10,12,14,22,24,29-decaen-8-yl]-2-methyl-N-(pyrimidin-5-yl)propanamide] it was greater than 3160 nM; in that of `Cc1ccc2cc1CN1Cc3cc(ccc3OS1(=O)=O)OCCCCn1nnc3c(C)c(ccc31)C2C(C)(C)C(=O)Nc1cccnc1` (single isomer, unassigned) [Example 82a, 2-[4,31-Dimethyl-27,27-dioxo-21,26-dioxa-27λ^6-thia-1,14,15,16-tetraazahexacyclo[20.5.3.1^3,70.1^9,130.0^12,160.0^25,29]dotriaconta-3(32),4,6,9(31),10,12,14,22,24,29-decaen-8-yl]-2-methyl-N-(pyridin-3-yl)propanamide], 635 nM. Still for that read-out and setting: then `Cc1ccc2cc1CN1Cc3cc(ccc3OS1(=O)=O)OCCCCn1nnc3c(C)c(ccc31)C2C(C)(C)C(=O)Nc1cccnc1` (single isomer, unassigned) [Example 82b, 2-[4,31-Dimethyl-27,27-dioxo-21,26-dioxa-27λ^6-thia-1,14,15,16-tetraazahexacyclo[20.5.3.1^3,70.1^9,130.0^12,160.0^25,29]dotriaconta-3(32),4,6,9(31),10,12,14,22,24,29-decaen-8-yl]-2-methyl-N-(pyridin-3-yl)propanamide], with greater than 3160 nM.

By EC50 is commonly meant the concentration that produces a half-maximal response.
